PMC8173610 (Biochemistry, 2021)

Molecular target: microtubule-associated protein tau (Homo sapiens, UniProt P10636)
Assay type: biochemical

Sequence of microtubule-associated protein tau (P10636 1-441 isoform P10636-8): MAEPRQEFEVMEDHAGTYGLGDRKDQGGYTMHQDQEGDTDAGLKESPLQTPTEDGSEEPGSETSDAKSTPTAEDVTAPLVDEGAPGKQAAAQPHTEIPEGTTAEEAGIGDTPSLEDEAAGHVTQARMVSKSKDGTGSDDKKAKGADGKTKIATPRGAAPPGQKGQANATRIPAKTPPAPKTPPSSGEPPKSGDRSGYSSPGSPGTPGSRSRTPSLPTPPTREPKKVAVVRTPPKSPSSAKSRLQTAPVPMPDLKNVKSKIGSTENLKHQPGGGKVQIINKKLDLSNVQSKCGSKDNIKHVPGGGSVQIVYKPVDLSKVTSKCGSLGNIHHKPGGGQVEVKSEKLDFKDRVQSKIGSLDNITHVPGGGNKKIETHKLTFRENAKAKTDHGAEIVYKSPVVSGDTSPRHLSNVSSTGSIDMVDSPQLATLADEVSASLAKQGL

IC50: 35 µM
Compound: CCCCCCCCCc1cc2cc(O)c(C)c(O)c2cn1 [ANTC-15, 7-methyl-3-nonylisoquinoline-6,8-diol]
